We go through eleven compounds from patent US20240116985A1, “STAPLED PEPTIDES AND METHODS THEREOF” (priority 2020, published 2024).

The term Solubility denotes the dissolved amount per volume that the medium holds. High values mean a readily soluble substance, low ones a poorly soluble substance.

Molecules are shown by their SMILES. pIC50: −log10 of the molar value. Converted amounts (≈) assume the structure as drawn. Like-named read-outs stand apart in the source and are kept apart here.

In data set [1] the target is T1, full-length beta-Catenin (Uniprot ID P35222) (Homo sapiens, UniProt P35222).
T1 construct: 10 nM full-length beta-Catenin (Uniprot ID P35222)
T1 sequence (P35222 1-781): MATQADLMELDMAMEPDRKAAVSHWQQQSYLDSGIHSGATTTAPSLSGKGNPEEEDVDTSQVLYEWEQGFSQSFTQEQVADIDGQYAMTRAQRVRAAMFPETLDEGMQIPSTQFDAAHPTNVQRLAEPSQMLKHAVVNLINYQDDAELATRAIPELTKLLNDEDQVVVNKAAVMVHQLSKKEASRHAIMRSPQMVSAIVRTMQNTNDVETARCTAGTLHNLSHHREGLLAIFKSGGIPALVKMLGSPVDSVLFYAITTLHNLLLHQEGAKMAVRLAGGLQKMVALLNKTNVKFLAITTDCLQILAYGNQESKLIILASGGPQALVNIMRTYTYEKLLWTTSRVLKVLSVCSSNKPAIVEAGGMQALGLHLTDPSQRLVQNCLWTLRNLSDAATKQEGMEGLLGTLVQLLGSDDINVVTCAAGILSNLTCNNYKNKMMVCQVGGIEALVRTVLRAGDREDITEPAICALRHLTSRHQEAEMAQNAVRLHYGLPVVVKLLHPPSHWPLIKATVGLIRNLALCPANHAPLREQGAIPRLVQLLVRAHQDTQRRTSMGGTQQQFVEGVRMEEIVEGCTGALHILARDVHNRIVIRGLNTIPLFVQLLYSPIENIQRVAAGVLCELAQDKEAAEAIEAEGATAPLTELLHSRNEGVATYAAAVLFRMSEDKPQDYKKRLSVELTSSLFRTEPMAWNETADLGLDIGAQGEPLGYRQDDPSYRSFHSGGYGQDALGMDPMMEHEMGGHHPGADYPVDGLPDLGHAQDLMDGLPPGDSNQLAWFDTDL
Description: Fluorescence polarization IC50 (beta-catenin / 5FAM-TCF4 10-53 competition). The settings on record: fluorescence polarization. It counts as binding. On the technique in general: Fluorescence polarisation rises when a labelled molecule tumbles more slowly, as on binding a larger partner.

Another data set is described as follows: Solubility in PBS. The data set is classed as physicochemical. A digest of the protocol: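 PBS sample ultracentrifuged; supernatant run on HPLC vs. 50 μM peptide in DMSO standard. Solubility = (PBS peak area / DMSO peak area) × 50 uM.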
[2] abbreviates: beta-catenin, read-out: FP EC50.

On to `CC(=O)N1CCC[C@]12CC=CCCCC1(CCCC=CCCCCCCCC[C@@](C)(C(=O)N[C@@H](Cc3ccccc3Cl)C(=O)N[C@@H](Cc3csc4ccccc34)C(=O)N[C@H](C(N)=O)[C@@H](C)O)NC(=O)[C@H]([C@@H](C)O)NC(=O)[C@H](Cc3ccccc3)NC(=O)[C@H](C)NC(=O)[C@H](C)NC(=O)[C@H](CC(=O)O)NC(=O)[C@H](CC(=O)O)NC1=O)NC(=O)[C@H](CC(C)(C)C)NC(=O)[C@H](CC(=O)O)NC2=O` (stereo partly drawn) [I-1262, Ac-PL3-Asp-Npg-B5-Asp-Asp-Ala-Ala-Phe-Thr-S10-2C1F-BztA-Thr-NH2], for which the pIC50 in data set [1] (read-out: beta-Catenin FP IC50) is 5.95. In “Solubility in PBS” (Solubility (uM)), this compound registered a Solubility of 49 µM (≈ 92.7 µg/mL).

For `CC(=O)N1CCC[C@]12CC=CCCCC1(CCCC=CCCCOC(=O)N3CC[C@@](C(=O)N[C@@H](Cc4ccc5ccccc5c4)C(=O)N[C@@H](Cc4csc5ccccc45)C(=O)N[C@@H](CO)C(N)=O)(C3)NC(=O)[C@H]([C@@H](C)O)NC(=O)[C@H](Cc3ccccc3)NC(=O)[C@H](C)NC(=O)[C@H](C)NC(=O)[C@H]([C@@H](C)O)NC(=O)[C@H](CC(=O)O)NC1=O)NC(=O)[C@H](CC(C)(C)C)NC(=O)[C@H](CC(=O)O)NC2=O` (stereo partly drawn) [I-1270, Ac-PL3-Asp-Npg-B5-Asp-Thr-Ala-Ala-Phe-Thr-PyrS2-2NapA-BztA-Ser-NH2], the pIC50 in data set [1] (read-out: beta-Catenin FP IC50) is 5.43. In the data set “Solubility in PBS”, the “Solubility” value is 10 µM (≈ 18.9 µg/mL).

With `CC(=O)N1CCC[C@]12CC=CCCCC1(CCCC=CCCCOC(=O)N3CC[C@@](C(=O)N[C@@H](Cc4cccc(C(F)(F)F)c4)C(=O)N[C@@H](Cc4csc5ccccc45)C(=O)N[C@@H](CO)C(N)=O)(C3)NC(=O)[C@H]([C@@H](C)O)NC(=O)[C@H](Cc3ccccc3)NC(=O)[C@H](C)NC(=O)[C@H](C)NC(=O)[C@H]([C@@H](C)O)NC(=O)[C@H](CC(=O)O)NC1=O)NC(=O)[C@H](CC(C)(C)C)NC(=O)[C@H](CC(=O)O)NC2=O` (stereo partly drawn) [I-1271, Ac-PL3-Asp-Npg-B5-Asp-Thr-Ala-Ala-Phe-Thr-PyrS2-3F3MeF-BztA-Ser-NH2], the pIC50 in data set [1] (read-out: beta-Catenin FP IC50) is 6.17. Moreover, the “Solubility” value in “Solubility in PBS” is 10 µM (≈ 19.1 µg/mL).

For the compound `CC(=O)N1CCC[C@]12CC=CCCCC1(CCCC=CCCCOC(=O)N3CC[C@@](C(=O)N[C@@H](Cc4ccccc4)C(=O)N[C@@H](Cc4cccc5ccccc45)C(=O)N[C@@H](CO)C(N)=O)(C3)NC(=O)[C@H]([C@@H](C)O)NC(=O)[C@H](Cc3ccccc3)NC(=O)[C@H](C)NC(=O)[C@H](C)NC(=O)[C@H]([C@@H](C)O)NC(=O)[C@H](CC(=O)O)NC1=O)NC(=O)[C@H](CC(C)(C)C)NC(=O)[C@H](CC(=O)O)NC2=O` (stereo partly drawn) [I-1272, Ac-PL3-Asp-Npg-B5-Asp-Thr-Ala-Ala-Phe-Thr-PyrS2-Phe-1NapA-Ser-NH2], the pIC50 in data set [1] (read-out: beta-Catenin FP IC50) is 6.48. In “Solubility in PBS” (Solubility (uM)), this compound had a Solubility of 21 µM (≈ 38.6 µg/mL).

In the case of `CC(=O)N1CCC[C@]12CC=CCCCC1(CCCC=CCCCOC(=O)N3CC[C@@](C(=O)N[C@@H](Cc4ccccc4)C(=O)N[C@@H](Cc4csc5ccccc45)C(=O)N[C@@H](CCC(N)=O)C(N)=O)(C3)NC(=O)[C@H](CC(C)C)NC(=O)[C@H](Cc3ccccc3)NC(=O)[C@H](C)NC(=O)[C@H](CCCCNC(C)C)NC(=O)[C@H]([C@@H](C)O)NC(=O)[C@H](CC(=O)O)NC1=O)NC(=O)[C@H](CC(C)(C)C)NC(=O)[C@H](CC(N)=O)NC2=O` (stereo partly drawn) [I-1288, Ac-PL3-Asn-Npg-B5-Asp-Thr-iPrLys-Ala-Phe-Leu-PyrS2-Phe-BztA-Gln-NH2], the pIC50 in data set [1] (setting [2]) and in data set [1] (read-out: beta-Catenin FP IC50) was 5.93 throughout. In addition, in the data set “Solubility in PBS”, the “Solubility” value was determined as 10 µM (≈ 20 µg/mL).

In the case of `CC(=O)N1CCC[C@]12CC=CCCCC1(CCCC=CCCCOC(=O)N3CC[C@@](C(=O)N[C@@H](Cc4ccccc4)C(=O)N[C@@H](Cc4csc5ccccc45)C(=O)N[C@@H](CCC(N)=O)C(N)=O)(C3)NC(=O)[C@H](CC(C)C)NC(=O)[C@H](Cc3ccccc3)NC(=O)[C@H](C)NC(=O)[C@H](C)NC(=O)[C@H]([C@@H](C)O)NC(=O)[C@H](CC(N)=O)NC1=O)NC(=O)[C@H](C)NC(=O)[C@H](CC(=O)O)NC2=O` (stereo partly drawn) [I-1296, Ac-PL3-Asp-Ala-B5-Asn-Thr-Ala-Ala-Phe-Leu-PyrS2-Phe-BztA-Gln-NH2], the pIC50 in data set [1] (setting [2]) and in data set [1] (read-out: beta-Catenin FP IC50) was 5.42 throughout. Further, in the data set “Solubility in PBS”, the “Solubility” value is 10 µM (≈ 18.4 µg/mL).

On to `CC(=O)N1CCC[C@]12CC=CCCCC1(CCCC=CCCCOC(=O)N3CC[C@@](C(=O)N[C@@H](Cc4ccsc4)C(=O)N[C@@H](Cc4csc5ccccc45)C(=O)N[C@H](CO)[C@@H](C)O)(C3)NC(=O)[C@H]([C@@H](C)O)NC(=O)[C@H](Cc3ccccc3)NC(=O)[C@H](C)NC(=O)[C@H](C)NC(=O)[C@H](CC(=O)O)NC(=O)[C@H](CC(=O)O)NC1=O)NC(=O)[C@H](CC(C)(C)C)NC(=O)[C@H](CC(=O)O)NC2=O` (stereo partly drawn) [I-1306, Ac-PL3-Asp-Npg-B5-Asp-Asp-Ala-Ala-Phe-Thr-PyrS2-3Thi-BztA-Thro1], for which the pIC50 in data set [1] (read-out: beta-Catenin FP IC50) is 8.22. Moreover, the “Solubility” value in “Solubility in PBS” was 50 µM (≈ 93.3 µg/mL).

Turning to `CC(=O)N1CCC[C@]12CC=CCCCC1(CCCC=CCCCOC(=O)N3CC[C@@](C(=O)N[C@@H](Cc4ccccc4Cl)C(=O)N[C@@H](Cc4csc5ccccc45)C(=O)N[C@H](CO)[C@@H](C)O)(C3)NC(=O)[C@H](CC(C)C)NC(=O)[C@H](Cc3ccccc3)NC(=O)[C@H](C)NC(=O)[C@H](C)NC(=O)[C@H](CC(=O)O)NC(=O)[C@H](CC(=O)O)NC1=O)NC(=O)[C@H](CC1CCCCC1)NC(=O)[C@H](CC(=O)O)NC2=O` (stereo partly drawn) [I-1307, Ac-PL3-Asp-Cha-B5-Asp-Asp-Ala-Ala-Phe-Leu-PyrS2-2C1F-BztA-Thro1], the pIC50 in data set [1] (read-out: beta-Catenin FP IC50) is 7.68. Also, the Solubility in the data set “Solubility in PBS” (Solubility (uM)) turned out to be 20 µM (≈ 38.6 µg/mL).

With `CC(=O)N1CCC[C@]12CC=CCCCC1(CCCC=CCCCOC(=O)N3CC[C@@](C(=O)N[C@@H](Cc4ccccc4Cl)C(=O)N[C@@H](Cc4csc5ccccc45)C(=O)N[C@H](CO)[C@@H](C)O)(C3)NC(=O)[C@H](CC(C)C)NC(=O)[C@H](Cc3ccccc3)NC(=O)[C@H](C)NC(=O)[C@H](CCCCNC(C)C)NC(=O)[C@H](CC(=O)O)NC(=O)[C@H](CC(=O)O)NC1=O)NC(=O)[C@H](CC(C)(C)C)NC(=O)[C@H](CC(=O)O)NC2=O` (stereo partly drawn) [I-1313, Ac-PL3-Asp-Npg-B5-Asp-Asp-iPrLys-Ala-Phe-Leu-PyrS2-2C1F-BztA-Thro1], the pIC50 in data set [1] (read-out: beta-Catenin FP IC50) was 7.92. In addition, the “Solubility” value in the data set “Solubility in PBS” stood at 10 µM (≈ 20 µg/mL).

In the case of `CC(=O)N1CCC[C@]12CC=CCCCC1(CCCC=CCCCOC(=O)N3CC[C@@](C(=O)N[C@@H](Cc4ccccc4C(F)(F)F)C(=O)N[C@@H](Cc4csc5ccccc45)C(=O)N[C@H](CO)[C@@H](C)O)(C3)NC(=O)[C@H](Cc3ccccc3)NC(=O)[C@H](Cc3ccccc3)NC(=O)[C@H](C)NC(=O)[C@H](C)NC(=O)[C@H](Cc3cccc(C(=O)O)c3)NC(=O)[C@H](CC(=O)O)NC1=O)NC(=O)[C@H](CC(C)(C)C)NC(=O)[C@H](CC(=O)O)NC2=O` (stereo partly drawn) [I-1343, Ac-PL3-Asp-Npg-B5-Asp-3COOHF-Ala-Ala-Phe-Phe-PyrS2-2F3MeF-BztA-Thro1], in data set [1] (read-out: beta-Catenin FP IC50), the pIC50 was 6.82. In addition, in “Solubility in PBS”, the “Solubility” value is 10 µM (≈ 20.5 µg/mL).

Regarding `CC(C)C[C@@H]1NC(=O)[C@H](Cc2ccccc2)NC(=O)[C@H](C)NC(=O)[C@H](C)NC(=O)[C@H](CC(=O)O)NC(=O)[C@H](CC(=O)O)NC(=O)C2(CCCC=CCCCOC(=O)N3CC[C@@](C(=O)N[C@@H](Cc4ccccc4)C(=O)N[C@@H](Cc4csc5ccccc45)C(=O)N[C@@H](CCC(N)=O)C(N)=O)(C3)NC1=O)CCCC=CC[C@]1(CCCN1C(=O)CCCN(C)C)C(=O)N[C@@H](CC(=O)O)C(=O)N[C@@H](CC(C)(C)C)C(=O)N2` (stereo partly drawn) [I-1358, NdiMeButC-PL3-Asp-Npg-B5-Asp-Asp-Ala-Ala-Phe-Leu-PyrS2-Phe-BztA-Gln-NH2], the pIC50 in data set [1] (setting [2]) and in data set [1] (read-out: beta-Catenin FP IC50) was 7.72 throughout. Further, the “Solubility” value in the data set “Solubility in PBS” is 10 µM (≈ 19.8 µg/mL).
